One assay deals with MV4;11 cells. Briefly: Cell viability assay (CellTiter-Glo) in MV4;11 cells, alone or with gilteritinib. It is filed as cell-based. The settings on record: Homo sapiens, MV4;11 cells, three days, CellTiter-Glo, read-out: MV4.
A further assay concerns MOLM-13 cells. The experiment in a line: Cell viability assay (CellTiter-Glo) in MOLM-13 cells, alone or with gilteritinib. In kind it is cell-based. The settings on record: Homo sapiens, MOLM-13 cells, three days, CellTiter-Glo. (ATP-based viability assays read luminescence as a measure of living cells.)
[1] abbreviates: MV4-11, 72 h, compound alone (without gilteritinib), 11 IC50.
[2] abbreviates: MV4-11, 72 h, with gilteritinib 10 nM, 11 IC50 gilteritinib.
Where [3] appears, read: MOLM-13, 72 h, compound alone (without gilteritinib), read-out: MOLM-13 IC50.
Setting [4] is: MOLM-13, 72 h, with gilteritinib 20 nM, read-out: MOLM-13 IC50 gilteritinib.
Where [5] appears, read: 72 h, compound alone (without gilteritinib), 11 IC50.
[6] abbreviates: 72 h, with gilteritinib 10 nM, 11 IC50 gilteritinib.
Where [7] appears, read: 72 h, compound alone (without gilteritinib), read-out: MOLM-13 IC50.
Setting [8] is: 72 h, with gilteritinib 20 nM, read-out: MOLM-13 IC50 gilteritinib.

The text below walks through data of US20240050428A1 (Cullgen (Shanghai), Inc., priority 2020, published 2024).

The structures appear in SMILES notation. Like-named read-outs stand apart in the source and are kept apart here.

Turning to `O=C1CCC(N2C(=O)c3ccc(NCCCC4CC(n5cc(-c6cnc7ccccc7n6)cn5)C4)cc3C2=O)C(=O)N1` (stereo not drawn) [GS-107, 2-(2,6-Dioxopiperidin-3-yl)-5-((3-(3-(4-(quinoxalin-2-yl)-1H-pyrazol-1-yl)cyclobutyl)propyl)amino)isoindoline-1,3-dione], the IC50 is 100 to 1000 nM with MV4;11 cells (setting [1]), 10 to 100 nM in the assay on MV4;11 cells (setting [2]), greater than 1000 nM in the assay with MOLM-13 cells (setting [3]) and 10 to 100 nM in the assay with MOLM-13 cells (setting [4]).
Regarding `O=C1CCC(N2Cc3c(OCc4ccc(CN5CCC(n6cc(-c7cnc8ccccc8n7)cn6)CC5)cc4)cccc3C2=O)C(=O)N1` (stereo not drawn) [GS-108, 3-(1-Oxo-4-((4-((4-(4-(quinoxalin-2-yl)-1H-pyrazol-1-yl)piperidin-1-yl)methyl)benzyl)oxy)isoindolin-2-yl)piperidine-2,6-dione], the IC50 is greater than 1000 nM with MV4;11 cells (setting [1]), 100 to 1000 nM in the assay on MV4;11 cells (setting [2]), greater than 1000 nM in the assay with MOLM-13 cells (setting [3]) and 10 to 100 nM in the assay on MOLM-13 cells (setting [4]).
`O=C(CC1CC1n1cc(-c2cnc3ccccc3n2)cn1)NCc1ccc2c(c1)CN(C1CCC(=O)NC1=O)C2=O` (stereo not drawn) [GS-109, N-((2-(2,6-Dioxopiperidin-3-yl)-1-oxoisoindolin-5-yl)methyl)-2-(2-(4-(quinoxalin-2-yl)-1H-pyrazol-1-yl)cyclopropyl)acetamide]: the IC50 in the assay with MV4;11 cells (setting [1]) was 100 to 1000 nM; with MV4;11 cells (setting [2]), 100 to 1000 nM; with MOLM-13 cells (setting [3]), greater than 1000 nM; in the assay with MOLM-13 cells (setting [4]), 100 to 1000 nM.
`O=C1CCC(N2Cc3c(NC4CCCC(Nc5cccc(N6CCC(n7cc(-c8cnc9ccccc9n8)cn7)CC6)c5)C4)cccc3C2=O)C(=O)N1` (stereo not drawn) [GS-110, 3-(1-Oxo-4-((3-((3-(4-(4-(quinoxalin-2-yl)-1H-pyrazol-1-yl)piperidin-1-yl)phenyl)amino)cyclohexyl)amino)isoindolin-2-yl)piperidine-2,6-dione]: the IC50 with MV4;11 cells (setting [1]) was less than 10 nM; with MV4;11 cells (setting [2]), less than 10 nM; in the assay on MOLM-13 cells (setting [3]), 10 to 100 nM; with MOLM-13 cells (setting [4]) it was less than 10 nM.
As to `O=C1CCC(N2Cc3ccc(CCCCCCC(=O)N4CCC(c5ccccn5)CC4)cc3C2=O)C(=O)N1` (stereo not drawn) [GS-111, 3-(1-Oxo-6-(7-oxo-7-(4-(pyridin-2-yl)piperidin-1-yl)heptyl)isoindolin-2-yl)piperidine-2,6-dione], the IC50 in the assay on MV4;11 cells (setting [1]) is 100 to 1000 nM; with MV4;11 cells (setting [2]) it was 10 to 100 nM; with MOLM-13 cells (setting [3]), greater than 1000 nM; in the assay on MOLM-13 cells (setting [4]), 100 to 1000 nM.
On to `O=C1CCC(N2C(=O)c3ccc(NCCCC4CCCC(n5cc(-c6cnc7ccccc7n6)cn5)C4)cc3C2=O)C(=O)N1` (stereo not drawn) [GS-112, 2-(2,6-Dioxopiperidin-3-yl)-5-((3-(3-(4-(quinoxalin-2-yl)-1H-pyrazol-1-yl)cyclohexyl)propyl)amino)isoindoline-1,3-dione], for which the IC50 was greater than 1000 nM with MV4;11 cells (setting [1]), 100 to 1000 nM in the assay with MV4;11 cells (setting [2]), greater than 1000 nM in the assay with MOLM-13 cells (setting [3]) and 100 to 1000 nM in the assay with MOLM-13 cells (setting [4]).
Regarding `O=C1CCC(N2Cc3ccc(CCCCCC(=O)N4CCC(c5cccc(Cl)c5)CC4)cc3C2=O)C(=O)N1` (stereo not drawn) [GS-113, 3-(6-(6-(4-(3-Chlorophenyl)piperidin-1-yl)-6-oxohexyl)-1-oxoisoindolin-2-yl)piperidine-2,6-dione], the IC50 was 10 to 100 nM in the assay on MV4;11 cells (setting [1]), less than 10 nM with MV4;11 cells (setting [2]), greater than 1000 nM in the assay on MOLM-13 cells (setting [3]) and 10 to 100 nM with MOLM-13 cells (setting [4]).
With `O=C1CCC(N2Cc3ccc(CCCCCC(=O)N4CCC(c5ccc(Cl)cc5)CC4)cc3C2=O)C(=O)N1` (stereo not drawn) [GS-114, 3-(6-(6-(4-(4-Chlorophenyl)piperidin-1-yl)-6-oxohexyl)-1-oxoisoindolin-2-yl)piperidine-2,6-dione], the IC50 in the assay with MV4;11 cells (setting [5]) fell in the range of 100 to 1000 nM; in the assay with MV4;11 cells (setting [6]), 10 to 100 nM; in the assay on MOLM-13 cells (setting [7]) it was 100 to 1000 nM; with MOLM-13 cells (setting [8]), 10 to 100 nM.
As to `O=C1CCC(N2Cc3ccc(CCCCCCC(=O)N4CCC(c5cccc(Cl)c5)CC4)cc3C2=O)C(=O)N1` (stereo not drawn) [GS-115, 3-(6-(7-(4-(3-Chlorophenyl)piperidin-1-yl)-7-oxoheptyl)-1-oxoisoindolin-2-yl)piperidine-2,6-dione], the IC50 with MV4;11 cells (setting [1]) is 100 to 1000 nM; in the assay with MV4;11 cells (setting [2]) it was 10 to 100 nM; in the assay on MOLM-13 cells (setting [3]), 10 to 100 nM; in the assay with MOLM-13 cells (setting [4]), less than 10 nM.
Consider `O=C1CCC(N2Cc3ccc(CCCCCCC(=O)N4CCC(c5ccc(Cl)cc5)CC4)cc3C2=O)C(=O)N1` (stereo not drawn) [GS-116, 3-(6-(7-(4-(4-Chlorophenyl)piperidin-1-yl)-7-oxoheptyl)-1-oxoisoindolin-2-yl)piperidine-2,6-dione], for which the IC50 in the assay on MV4;11 cells (setting [5]) was 10 to 100 nM; in the assay on MV4;11 cells (setting [6]), less than 10 nM; with MOLM-13 cells (setting [7]) it was 100 to 1000 nM; in the assay with MOLM-13 cells (setting [8]) it was less than 10 nM.
Take `O=C1CCC(N2C(=O)c3ccc(NCCc4ccc(-n5cc(-c6cnc7ccccc7n6)cn5)cc4)cc3C2=O)C(=O)N1` (stereo not drawn) [GS-117, 2-(2,6-Dioxopiperidin-3-yl)-5-((4-(4-(quinoxalin-2-yl)-1H-pyrazol-1-yl)phenethyl)amino)isoindoline-1,3-dione]: the IC50 in the assay on MV4;11 cells (setting [1]) was greater than 1000 nM; in the assay on MV4;11 cells (setting [2]), 100 to 1000 nM; with MOLM-13 cells (setting [3]), greater than 1000 nM; in the assay on MOLM-13 cells (setting [4]), 100 to 1000 nM.
On to `O=C1CCC(N2C(=O)c3ccc(NCCNCC4CC4n4cc(-c5cnc6ccccc6n5)cn4)cc3C2=O)C(=O)N1` (stereo not drawn) [GS-118, 2-(2,6-Dioxopiperidin-3-yl)-5-((2-(((2-(4-(quinoxalin-2-yl)-1H-pyrazol-1-yl)cyclopropyl)methyl)amino)ethyl)amino)isoindoline-1,3-dione], for which the IC50 is greater than 1000 nM in the assay with MV4;11 cells (setting [1]), greater than 1000 nM in the assay with MV4;11 cells (setting [2]), 10 to 100 nM in the assay on MOLM-13 cells (setting [3]) and less than 10 nM in the assay on MOLM-13 cells (setting [4]).
With `O=C1CCC(N2Cc3c(NC4CCCC(Nc5ccnc(N6CCC(n7cc(-c8cnc9ccccc9n8)cn7)CC6)n5)C4)cccc3C2=O)C(=O)N1` (stereo not drawn) [GS-119, 3-(1-Oxo-4-((3-((2-(4-(4-(quinoxalin-2-yl)-1H-pyrazol-1-yl)piperidin-1-yl)pyrimidin-4-yl)amino)cyclohexyl)amino)isoindolin-2-yl)piperidine-2,6-dione], the IC50 is greater than 1000 nM in the assay with MV4;11 cells (setting [1]), 10 to 100 nM with MV4;11 cells (setting [2]), greater than 1000 nM with MOLM-13 cells (setting [3]) and 100 to 1000 nM in the assay on MOLM-13 cells (setting [4]).
Consider `O=C1CCC(N2Cc3cc(CNC(=O)C45CC(C(=O)N6CCC(n7cc(-c8cnc9ccccc9n8)cn7)CC6)(C4)C5)ccc3C2=O)C(=O)N1` (stereo not drawn) [GS-120, N-((2-(2,6-dioxopiperidin-3-yl)-1-oxoisoindolin-5-yl)methyl)-3-(4-(4-(quinoxalin-2-yl)-1H-pyrazol-1-yl)piperidine-1-carbonyl)bicyclo[1.1.1]pentane-1-carboxamide], for which the IC50 was 10 to 100 nM with MV4;11 cells (setting [1]), less than 10 nM in the assay on MV4;11 cells (setting [2]), 10 to 100 nM in the assay on MOLM-13 cells (setting [3]) and less than 10 nM in the assay on MOLM-13 cells (setting [4]).
As for `O=C(CC12CC(C(=O)N3CCC(n4cc(-c5cnc6ccccc6n5)cn4)CC3)(C1)C2)NCc1ccc2c(c1)CN(C1CCC(=O)NC1=O)C2=O` (stereo not drawn) [GS-121, N-((2-(2,6-dioxopiperidin-3-yl)-1-oxoisoindolin-5-yl)methyl)-2-(3-(4-(4-(quinoxalin-2-yl)-1H-pyrazol-1-yl)piperidine-1-carbonyl)bicyclo[1.1.1]pentan-1-yl)acetamide], the IC50 was 100 to 1000 nM with MV4;11 cells (setting [1]), 10 to 100 nM with MV4;11 cells (setting [2]), greater than 1000 nM in the assay on MOLM-13 cells (setting [3]) and 100 to 1000 nM in the assay on MOLM-13 cells (setting [4]).
